Results published in patent US4421767A, “Compounds and methods for treating depression” (priority 1982, dated 1983).
Like-named read-outs stand apart in the source and are kept apart here.

Legend:
[1] = tested on: heart rate and blood pressure responses to tyramine; assay type: in vivo, rat; details: for Tyramine Potentiation: 5 days, tyramine i.d.; for Tyramine Potentiation over and above that of carbidopa: figure in brackets
Protocol: (§1) (B) Rats were gavaged with saline or carbidopa given at dosage of 10 or 100 mg/kg. Thirty minutes later, the rats were gavaged with saline or AFHBA given at a dosage of 62.5 μg/kg. This treatment was repeated daily for 5 days. On the 6th day, the rats were anaesthetized and heart rate and blood pressure responses to tyramine (0.3-50 mg/kg, i.d.) were determined. Additionally, monoamines and MAO activity were determined in various tissues, including brain.

[2] = tested on: brain noradrenaline and 5-HT concentrations; assay: Brain amine concentration after 5 days oral MAO inhibitor in rats (Table I); assay type: in vivo, rat; details: for Brain Amine Concentration, Noradrenaline / Brain Amine Concentration, 5-HT: 5 days
Protocol: On the 6th day, rats were anaesthetized and heart rate and blood pressure responses to tyramine (0.3-50 mg/kg) administered intraduodenally (i.d.) were determined. Additionally, monoamines and MAO activity were determined in various tissues including brain.

[3] = tested on: heart rate and blood pressure responses to tyramine; assay: Potentiation of tyramine response after 5 days oral MAO inhibitor in rats (Table I); assay type: in vivo, rat; details: 5 days, tyramine i.d.
Protocol: (A) Rats were gavaged daily for 5 days with saline or 2-amino-4-fluoro-3-(3'-hydroxyphenyl)-3-butenoic acid (AFHBA) at dosages of 15.6, 62.5, 250, or 1000 μg/kg or with clorgyline at dosages of 1250 or 5000 μg/kg. On the 6th day, rats were anaesthetized and heart rate and blood pressure responses to tyramine (0.3-50 mg/kg) administered intraduodenally (i.d.) were determined. Additionally, monoamines and MAO activity were determined in various tissues including brain.

[4] = tested on: dopamine, DOPAC, 5-HT, and 5-HIAA concentrations in the brain; assay: In vivo brain dopamine, DOPAC, 5-HT and 5-HIAA concentrations after i.p. injection in rats; design: species or system rat
Protocol: Rats were injected with AFHBA (0.5 mg/kg, i.p.) alone or with AFHBA (0.5 mg/kg, i.p.) in combination with MFMD (2 mg/kg, i.p.) or carbidopa (50 mg/kg, i.p.) given 30 minutes before the AFHBA. The rats were killed 18 hours later, and dopamine, DOPAC, 5-HT, and 5-HIAA concentrations were determined in the brain.

neuronal MAO [5] = assay: Ex vivo MAO activity after i.p. injection in rats, neuronal MAO; design: species or system rat
Protocol: (§2) Rats were injected with AFHBA (0.5 mg/kg, i.p.) alone or with AFHBA (0.5 mg/kg, i.p.) in combination with MFMD (2.0 mg/kg, i.p.) administered 30 minutes before AFHBA. Animals were killed 18 hours later and MAO activity (5-HT and phenethylamine as substrates) was determined in brain, heart, and liver. In the brain, AFHBA administered alone inhibited neuronal MAO by 72% and non-neuronal MAO by 37%.
III. Rats were injected with AFMBA (100 mg/kg, i.p.) and were killed 18 hours later. MAO activity was determined in the brain, heart, and liver using 5-HT and PEA.

[6] = tested on: dopamine, DOPAC, 5-HT, and 5-HIAA concentrations in the brain; assay: In vivo brain dopamine, DOPAC, 5-HT and 5-HIAA concentrations after oral dosing in rats; design: species or system rat; details: 18 hours
Protocol: In a separate experiment, rats were given AFHBA orally at various doses. The rats were killed 18 hours later and dopamine, DOPAC, 5-HT, and 5-HIAA concentrations were determined in the brain.

MAO [7] = assay: In vitro MAO inhibition; assay type: biochemical
non-neuronal MAO = assay: Ex vivo brain MAO activity after oral gavage in rats, non-neuronal MAO; design: species or system rat; details: 18 hours
Protocol: (§3) MAO activity was determined in the brain using 5-HT and phenethylamine (PEA) as substrates.

[8] = tested on: brain noradrenaline and 5-HT concentrations; assay: Brain amine concentration, AFHBA with or without carbidopa pretreatment in rats (Table II); assay type: in vivo, rat; details: for Brain Amine Concentration, 5-HT / Brain Amine Concentration, Noradrenaline: 5 days
Protocol: as §1

MAO [9] = assay: Ex vivo MAO activity in rats, protection by extracerebral AADC inhibitor; design: species or system rat; details: AFHBA 0.5 mg/kg i.p. + MFMD 2.0 mg/kg i.p. 30 min before, liver
Protocol: as §2, §3

[10] = tested on: partially purified hog kidney AADC; assay: In vitro decarboxylation by partially purified hog kidney AADC (HPLC); assay type: in vitro ADME; details: with 10 μM MFMD (AADC inhibitor)
Protocol: (§4) AFHBA was incubated with partially purified hog kidney AADC at 37° for various times up to 2 hours.

[11] = as above; assay type: in vitro ADME; details: pig; hog kidney AADC, 37°, 2 hours, DL-mixture, HPLC; read-out: decarboxylation to the corresponding allylamine
Protocol: as §4

neuronal MAO [12] = assay: Ex vivo brain MAO activity after oral gavage in rats, neuronal MAO; design: species or system rat; details: 18 hours
Protocol: as §3

[13] = AFHBA 62.5 μg/kg + carbidopa 10 mg/kg
[14] = carbidopa 10000 μg/kg + AFHBA 62.5 μg/kg daily p.o.
[15] = carbidopa 100000 μg/kg + AFHBA 62.5 μg/kg daily p.o.
[16] = saline + AFHBA 62.5 μg/kg daily p.o.
[17] = AFHBA 0.5 mg/kg i.p. + MFMD 2 mg/kg i.p. 30 min before
[18] = AFHBA 0.5 mg/kg i.p. + carbidopa 50 mg/kg i.p. 30 min before
[19] = AFHBA alone 0.5 mg/kg i.p., 18 hours

In the case of `NC(C(=O)O)C(=CF)c1cccc(O)c1` (racemic) [AFHBA, 2-Amino-4-fluoro-3-(3'-hydroxyphenyl)-3-butenoic acid], the “potentiation of the tyramine response, combination versus AFHBA alone” value [1, 13] is reported as “the potentiation did not exceed that of AFHBA given alone”, the “Tyramine Potentiation” value [1, 14] is reported as 3.1 and the “Tyramine Potentiation over and above that of carbidopa” value ([1]; carbidopa 10000 μg/kg + AFHBA 62.5 μg/kg) is reported as 2.8. For the same molecule, the “Tyramine Potentiation” value [1, 15] was 5.0, the “Tyramine Potentiation over and above that of carbidopa” value ([1]; carbidopa 100000 μg/kg + AFHBA 62.5 μg/kg) was 2.2 and the “Tyramine Potentiation” value [1, 16] was 4.0. The “Brain Amine Concentration, Noradrenaline” value ([2]; AFHBA 15.6 μg/kg daily p.o., saline 318 ± 12) was 347 ± 9 ng/g, the “Brain Amine Concentration, 5-HT” value ([2]; AFHBA 15.6 μg/kg daily p.o., saline 507 ± 18) was 530 ± 27 ng/g and the “Brain Amine Concentration, 5-HT” value ([2]; AFHBA 62.5 μg/kg daily p.o.) was 531 ± 32 ng/g. The “Brain Amine Concentration, Noradrenaline” value ([2]; AFHBA 62.5 μg/kg daily p.o.) was 391 ± 12 ng/g, the “Brain Amine Concentration, 5-HT” value ([2]; AFHBA 250 μg/kg daily p.o.) was 1082 ± 98 ng/g and the “Brain Amine Concentration, Noradrenaline” value ([2]; AFHBA 250 μg/kg daily p.o.) was 563 ± 23 ng/g. For the same molecule, the “Brain Amine Concentration, 5-HT” value ([2]; AFHBA 1000 μg/kg daily p.o.) was 1486 ± 67 ng/g, the “Brain Amine Concentration, Noradrenaline” value ([2]; AFHBA 1000 μg/kg daily p.o.) was 650 ± 29 ng/g and the “brain noradrenaline and 5-HT concentrations (dose relation)” value ([2]; subacute treatment) was “dose-related increases in brain noradrenaline and 5-HT concentrations”. The “Tyramine Potentiation” value ([3]; AFHBA 15.6 μg/kg daily p.o., some potentiation at lowest doses of tyramine (footnote c)) was 1.0, the “Tyramine Potentiation” value ([3]; AFHBA 62.5 μg/kg daily p.o.) was 4.0 and the “Tyramine Potentiation” value ([3]; AFHBA 250 μg/kg daily p.o.) was 7.1. The “Tyramine Potentiation” value ([3]; AFHBA 1000 μg/kg daily p.o.) was 7.7, the “% Change from Control, 5-HIAA” value [4, 17] was -48% and the “% Change from Control, 5-HT” value [4, 17] was “+92%”. For the same molecule, the “% Change from Control, DOPAC” value [4, 17] was -92%, the “% Change from Control, Dopamine” value [4, 17] was “+50%” and the “% Change from Control, 5-HIAA” value [4, 18] was -37%. For the same molecule, the “% Change from Control, 5-HT” value [4, 18] was “+92%”, the “% Change from Control, DOPAC” value [4, 18] was -89% and the “% Change from Control, Dopamine” value [4, 18] was “+54%”. The “% Change from Control, 5-HIAA” value [4, 19] was -34%, the “% Change from Control, 5-HT” value [4, 19] was “+30%” and the “% Change from Control, DOPAC” value [4, 19] was -76%. For the same molecule, the “% Change from Control, Dopamine” value [4, 19] was “+25%”, the “inhibition of neuronal MAO, brain, MFMD pretreatment” value (neuronal MAO [5]; AFHBA 0.5 mg/kg i.p. + MFMD 2.0 mg/kg i.p. 30 min before, brain) was 68% and the “inhibition of neuronal MAO, heart, MFMD pretreatment” value (neuronal MAO [5]; AFHBA 0.5 mg/kg i.p. + MFMD 2.0 mg/kg i.p. 30 min before, heart) was 18%. For the same molecule, the “inhibition of neuronal MAO, brain” value (neuronal MAO [5]; AFHBA alone 0.5 mg/kg i.p., 18 hours, brain) was 72%, the “inhibition of neuronal MAO, heart” value (neuronal MAO [5]; AFHBA alone 0.5 mg/kg i.p., 18 hours, heart) was 52% and the “MAO inhibition, liver (neuronal)” value (neuronal MAO [5]; AFHBA alone 0.5 mg/kg i.p., 18 hours, liver) was 29%. The “% Change from Control, 5-HIAA” value ([6]; 0.5 mg/kg oral) was -11%, the “% Change from Control, 5-HT” value ([6]; 0.5 mg/kg oral) was “+26%” and the “% Change from Control, DOPAC” value ([6]; 0.5 mg/kg oral) was -55%. The “% Change from Control, 5-HIAA” value ([6]; 1.0 mg/kg oral) was -23%, the “% Change from Control, 5-HT” value ([6]; 1.0 mg/kg oral) was “+74%” and the “% Change from Control, DOPAC” value ([6]; 1.0 mg/kg oral) was -72%. For the same molecule, the “% Change from Control, Dopamine” value ([6]; 1.0 mg/kg oral) was “+17%”, the “% Change from Control, 5-HIAA” value ([6]; 2.5 mg/kg oral) was -41% and the “% Change from Control, 5-HT” value ([6]; 2.5 mg/kg oral) was “+140%”. The “% Change from Control, DOPAC” value ([6]; 2.5 mg/kg oral) was -79%, the “% Change from Control, Dopamine” value ([6]; 2.5 mg/kg oral) was “+28%” and the “MAO inhibition in vitro” value (MAO [7]) was “inactive or very weak inhibitor”. For the same molecule, the “% Inhibition of MAO, Non-neuronal” value (non-neuronal MAO; 0.5 mg/kg oral) was 41%, the “% Inhibition of MAO, Non-neuronal” value (non-neuronal MAO; 1.0 mg/kg oral) was 64% and the “% Inhibition of MAO, Non-neuronal” value (non-neuronal MAO; 2.5 mg/kg oral) was 83%. The “effect on brain monoamines, combination versus single agents” value [8, 13] was “at least equivalent to 250 μg/kg of AFHBA given alone or to 5000 μg/kg of clorgyline”, the “Brain Amine Concentration, 5-HT” value [8, 14] was 894 ± 25 ng/g and the “Brain Amine Concentration, Noradrenaline” value [8, 14] was 694 ± 24 ng/g. For the same molecule, the “Brain Amine Concentration, 5-HT” value [8, 15] was 815 ± 35 ng/g, the “Brain Amine Concentration, Noradrenaline” value [8, 15] was 327 ± 23 ng/g and the “Brain Amine Concentration, 5-HT” value [8, 16] was 531 ± 32 ng/g. For the same molecule, the “Brain Amine Concentration, Noradrenaline” value [8, 16] was 391 ± 12 ng/g, the “MAO inhibition, liver, MFMD pretreatment” value (MAO [9]) was “totally blocked MAO inhibition” and the “decarboxylation in the presence of MFMD” value [10] was “no decarboxylation was observed”. For the same molecule, the metabolised at 2 h [11] was 50%, the “% Inhibition of MAO, Neuronal” value (neuronal MAO [12]; 0.5 mg/kg oral) was 63% and the “% Inhibition of MAO, Neuronal” value (neuronal MAO [12]; 1.0 mg/kg oral) was 71%. For the same molecule, the “% Inhibition of MAO, Neuronal” value (neuronal MAO [12]; 2.5 mg/kg oral) was 95%.
